This is an account of results in PubChem BioAssay AID330 (DTP/NCI, 2004).

Where “and” joins values, the source holds several entries; their conditions need not be identical. Identical values can stand only once. Inconclusive results and toxic doses are left out.

The test concerns P388 leukemia ip, CD2F1 mice, survival T/C. The test can be described thus: NCI In Vivo Anticancer Drug Screen. Data for tumor model P388 Leukemia (intraperitoneal) in CD2F1 (CDF1) mice. Conditions: endpoint: median survival time, higher = longer survival. In short, it runs like this: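 Mice carrying the transplanted tumor received test compound or vehicle. Survival was recorded in each group, and the value is the treated-group measurement divided by that of the vehicle-treated control group.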

[1] abbreviates: dose: 50.0 mg/kg/injection, schedule: Q01DX009 (ip), vehicle: Klucel (hydroxypropylcellulose) (HPC).
[2] abbreviates: dose: 100.0 mg/kg/injection, schedule: Q01DX009 (ip), vehicle: Klucel (hydroxypropylcellulose) (HPC).
[3] abbreviates: dose: 100.0 mg/kg/injection, schedule: Q01DX009 (ip), vehicle: saline with Tween-80.
[4] abbreviates: dose: 50.0 mg/kg/injection, schedule: Q01DX005 (ip), vehicle: saline with Tween-80.
The mark [5] stands for this setting: dose: 100.0 mg/kg/injection, schedule: Q01DX005 (ip), vehicle: saline with Tween-80.
The mark [6] stands for this setting: dose: 60.0 mg/kg/injection, schedule: Q01DX005 (ip), vehicle: saline with Tween-80.
Setting [7] is: dose: 120.0 mg/kg/injection, schedule: Q01DX005 (ip), vehicle: saline with Tween-80.
[8] abbreviates: dose: 240.0 mg/kg/injection, schedule: Q01DX005 (ip), vehicle: saline with Tween-80.
[9] abbreviates: dose: 200.0 mg/kg/injection, schedule: Q01DX005 (ip), vehicle: saline with Tween-80.
[10] abbreviates: dose: 12.5 mg/kg/injection, schedule: Q01DX009 (ip), vehicle: saline.
The mark [11] stands for this setting: dose: 25.0 mg/kg/injection, schedule: Q01DX009 (ip), vehicle: saline.
The mark [12] stands for this setting: dose: 12.5 mg/kg/injection, schedule: Q01DX005 (ip), vehicle: saline with Tween-80.
The mark [13] stands for this setting: dose: 25.0 mg/kg/injection, schedule: Q01DX005 (ip), vehicle: saline with Tween-80.

In the case of `O=c1cccc(C(Cl)(Cl)Cl)o1`, the T/C is, setting by setting: (dose: 30.0 mg/kg/injection, schedule: Q01DX005 (ip), vehicle: saline + Tween-80 + alcohol) 105 % of control; (dose: 60.0 mg/kg/injection, schedule: Q01DX005 (ip), vehicle: saline + Tween-80 + alcohol) 104 % of control and 105 % of control; (dose: 120.0 mg/kg/injection, schedule: Q01DX005 (ip), vehicle: saline + Tween-80 + alcohol) 105 % of control and 97 % of control.
With `Cn1cnc([N+](=O)[O-])c1SCC(=O)O`, the T/C runs as follows: under setting [1], 108 % of control; under setting [2], 122 % of control; (dose: 200.0 mg/kg/injection, schedule: Q01DX009 (ip), vehicle: Klucel (hydroxypropylcellulose) (HPC)) 96 % of control; (dose: 400.0 mg/kg/injection, schedule: Q01DX009 (ip), vehicle: Klucel (hydroxypropylcellulose) (HPC)) 103 % of control.
For `Cc1cc(=O)c2c(ccc3ccccc32)[nH]1`, the T/C is 106 % of control under setting [3]; 109 % of control (dose: 200.0 mg/kg/injection, schedule: Q01DX009 (ip), vehicle: saline with Tween-80); 104 % of control (dose: 400.0 mg/kg/injection, schedule: Q01DX009 (ip), vehicle: saline with Tween-80).
Turning to `COC(=O)C1CC(OC(C)=O)C(O)C(O)C1OC(C)=O.[O]=[Os]=[O]` (stereo not drawn), the T/C (dose: 200.0 mg/kg/injection, schedule: Q01DX001 (ip), vehicle: saline) is 123 % of control.
For the compound `O=C1C=CC(=O)C2=C1CCCC2`, the T/C was 100 % of control (dose: 2.0 mg/kg/injection, schedule: Q01DX009 (ip), vehicle: saline with Tween-80); 100 % of control (dose: 2.9 mg/kg/injection, schedule: Q01DX009 (ip), vehicle: saline with Tween-80); 100 % of control (dose: 3.12 mg/kg/injection, schedule: Q01DX009 (ip), vehicle: saline with Tween-80); 100 % of control (dose: 4.5 mg/kg/injection, schedule: Q01DX009 (ip), vehicle: saline with Tween-80); 100 % of control (dose: 6.25 mg/kg/injection, schedule: Q01DX009 (ip), vehicle: saline with Tween-80); 100 % of control (dose: 6.5 mg/kg/injection, schedule: Q01DX009 (ip), vehicle: saline with Tween-80). Further, the T/C (dose: 12.5 mg/kg/injection, schedule: Q01DX009 (ip), vehicle: saline with Tween-80) was 102 % of control.
As to `O=C1NC(=O)C2C1C1C(=O)NC(=O)C21` (stereo not drawn), the T/C is, setting by setting: (dose: 25.0 mg/kg/injection, schedule: Q01DX009 (ip), vehicle: saline with Tween-80) 94 % of control; (dose: 50.0 mg/kg/injection, schedule: Q01DX009 (ip), vehicle: saline with Tween-80) 94 % of control; under setting [3], 103 % of control.
On to `COc1ccccc1N=NC1=C2Nc3ccccc3N=C1N(c1ccccc1OC)C(=S)N2c1ccccc1C`, for which the T/C is 102 % of control under setting [4] and 103 % of control under setting [5].
Turning to `Nc1cccc(NC=O)c1`, the T/C reads like this: (dose: 12.5 mg/kg/injection, schedule: Q04DX003 (ip), vehicle: saline with Tween-80) 100 % of control; (dose: 25.0 mg/kg/injection, schedule: Q04DX003 (ip), vehicle: saline with Tween-80) 110 % of control; (dose: 50.0 mg/kg/injection, schedule: Q04DX003 (ip), vehicle: saline with Tween-80) 100 % of control.
For the compound `CN1C(=O)CC(NC(=O)CNC(=O)c2ccccc2)C1=O` (stereo not drawn), the T/C under setting [6] was 97 % of control, the T/C under setting [7] is 94 % of control and the T/C under setting [8] is 90 % of control.
With `Cc1c(/C=C/C(=O)O)no[n+]1[O-]`, the T/C by setting is: under setting [4], 102 % of control; under setting [5], 98 % of control; under setting [9], 100 % of control.
Turning to `COC(=O)NC1CC=CCC1I` (stereo not drawn), the T/C was 96 % of control under setting [10]; 105 % of control under setting [11]; 106 % of control (dose: 50.0 mg/kg/injection, schedule: Q01DX009 (ip), vehicle: saline).
On to `O=C(CNC(=O)c1ccc(Cl)cc1)c1ccc(Br)cc1`, for which the T/C was 94 % of control under setting [12], 92 % of control under setting [13] and 92 % of control under setting [4].
Take `COc1cc(Br)cc(C=O)c1OC`: the T/C reads like this: (dose: 12.5 mg/kg/injection, schedule: Q01DX009 (ip), vehicle: other) 98 % of control; (dose: 25.0 mg/kg/injection, schedule: Q01DX009 (ip), vehicle: other) 98 % of control; (dose: 50.0 mg/kg/injection, schedule: Q01DX009 (ip), vehicle: other) 99 % of control; (dose: 100.0 mg/kg/injection, schedule: Q01DX009 (ip), vehicle: other) 98 % of control; (dose: 200.0 mg/kg/injection, schedule: Q01DX009 (ip), vehicle: other) 102 % of control; (dose: 400.0 mg/kg/injection, schedule: Q01DX009 (ip), vehicle: other) 114 % of control.
As for `Nc1ncnc2c1ncn2C(C=O)OC(C=O)CO` (stereo not drawn), the T/C reads like this: (dose: 4.4 mg/kg/injection, schedule: Q04DX003 (ip), vehicle: saline) 118 % of control; (dose: 6.6 mg/kg/injection, schedule: Q04DX003 (ip), vehicle: saline) 118 % of control; (dose: 9.38 mg/kg/injection, schedule: Q04DX003 (ip), vehicle: saline) 177 % of control; under setting [10], 150 % of control; under setting [11], 186 % of control; (dose: 37.5 mg/kg/injection, schedule: Q04DX003 (ip), vehicle: saline) 118 % of control. For the same compound, the T/C (dose: 75.0 mg/kg/injection, schedule: Q04DX003 (ip), vehicle: saline) is 209 % of control.
Regarding `OC(c1cc(-c2ccccc2)nc2c1ccc1ccccc12)C1CCCCN1` (stereo not drawn), the T/C under setting [12] is 101 % of control; the T/C under setting [13] was 97 % of control; the T/C under setting [4] was 100 % of control; the T/C under setting [5] was 100 % of control; the T/C under setting [9] is 107 % of control.
As to `Nc1ccc(N)c2c1C(=O)c1ccccc1C2=O`, the T/C is 110 % of control under setting [4]; 105 % of control under setting [1]; 105 % of control under setting [5]; 103 % of control under setting [2]; 105 % of control under setting [9].
`Clc1ccc(-c2c(-c3ccccc3)c3n(c2Sc2ccccc2)CCC3)cc1`: the T/C reads like this: (dose: 60.0 mg/kg/injection, schedule: Q01DX005 (ip), vehicle: Klucel (hydroxypropylcellulose) (HPC)) 92 % of control; (dose: 120.0 mg/kg/injection, schedule: Q01DX005 (ip), vehicle: Klucel (hydroxypropylcellulose) (HPC)) 89 % of control; (dose: 240.0 mg/kg/injection, schedule: Q01DX005 (ip), vehicle: Klucel (hydroxypropylcellulose) (HPC)) 86 % of control.
Take `CC1=CC2N(C=C1)C(c1cccc([N+](=O)[O-])c1)=NON2c1cc(C)ccn1` (stereo not drawn): the T/C reads like this: under setting [4], 91 % of control; under setting [5], 87 % of control and 89 % of control; under setting [9], 87 % of control and 90 % of control.
Turning to `CC1=NCCCN(CCN(C)C)CCCN=C(C)C2CCCC1[N-]2.[Ni+2].[O-][Cl+3]([O-])([O-])O`, the T/C is, setting by setting: (dose: 6.25 mg/kg/injection, schedule: Q01DX001 (ip), vehicle: saline) 100 % of control; (dose: 12.5 mg/kg/injection, schedule: Q01DX001 (ip), vehicle: saline) 100 % of control; (dose: 25.0 mg/kg/injection, schedule: Q01DX001 (ip), vehicle: saline) 100 % of control and 102 % of control.
As to `Cc1ccc(NCCN2CCN(CCNc3ccc(C)c4sc5ccccc5c(=O)c34)CC2)c2c(=O)c3ccccc3sc12`, the T/C by setting is: (dose: 6.25 mg/kg/injection, schedule: Q01DX005 (ip), vehicle: saline with Tween-80) 106 % of control; under setting [12], 98 % of control; under setting [13], 105 % of control; under setting [4], 97 % of control.
`Cc1ccc(N2CC(O)CN(c3ccc(C)cc3)CC(O)C2)cc1` (stereo not drawn): the T/C is 97 % of control under setting [6], 97 % of control under setting [7] and 94 % of control under setting [8].
`O=C1C=CC(=O)c2c(O)ccc(O)c21`: the T/C (dose: 0.2 mg/kg/injection, schedule: Q01DX005 (ip), vehicle: saline with Tween-80) was 102 % of control; the T/C (dose: 0.4 mg/kg/injection, schedule: Q01DX005 (ip), vehicle: saline with Tween-80) was 97 % of control; the T/C (dose: 0.8 mg/kg/injection, schedule: Q01DX005 (ip), vehicle: saline with Tween-80) was 98 % of control; the T/C (dose: 1.0 mg/kg/injection, schedule: Q04DX003 (ip), vehicle: saline with Tween-80) is 100 % of control; the T/C (dose: 2.0 mg/kg/injection, schedule: Q04DX003 (ip), vehicle: saline with Tween-80) is 104 % of control; the T/C (dose: 4.0 mg/kg/injection, schedule: Q04DX003 (ip), vehicle: saline with Tween-80) is 100 % of control.
